In PMC4161441, “Unravelling the Multiple Functions of the Architecturally Intricate Streptococcus pneumoniae β-galactosidase, BgaA” (PLoS Pathogens, 2014):

Assays:
CBM71-1 [1] = target: T1, CBM71-1 (Streptococcus pneumoniae, UniProt Q8DQP4); test: UV difference spectroscopy; format: binding; details: 25 °C; too weak to quantify
T1 construct: gene bgaA; pET28-based expression in E. coli; exact borders not in text

CBM71-2 [2] = target: T2, CBM71-2 (Streptococcus pneumoniae, UniProt Q8DQP4); test: UV difference spectroscopy; format: binding; details: 25 °C; too weak to quantify
T2 construct: gene bgaA; pET28-based expression in E. coli; exact borders not in text

CBM71-2 [3] = target: T2, CBM71-2; test: isothermal titration calorimetry; format: binding; details: PBS, 25 °C
CBM71-1 [4] = target: T1, CBM71-1; test: isothermal titration calorimetry; format: binding; details: PBS, 25 °C
[5] = target: T3, BgaA catalytic region (GH2; SpBgaA) (Streptococcus pneumoniae, UniProt A0A0H2UP19); test: isothermal titration calorimetry; format: binding
T3 construct: N-terminal catalytic region, domains I-V (GH2 region printed as residues 138-993; SpBgaA146-990 in cell assay); pET28-based expression in E. coli; source strain and exact borders not in main text

[6] = target: T3, BgaA catalytic region (GH2; SpBgaA); test: steady-state kinetics, UV-visible spectrophotometry; apparent Km/Vmax against inhibitor concentration; format: biochemical

T1 sequence (Q8DQP4 entry or part of it): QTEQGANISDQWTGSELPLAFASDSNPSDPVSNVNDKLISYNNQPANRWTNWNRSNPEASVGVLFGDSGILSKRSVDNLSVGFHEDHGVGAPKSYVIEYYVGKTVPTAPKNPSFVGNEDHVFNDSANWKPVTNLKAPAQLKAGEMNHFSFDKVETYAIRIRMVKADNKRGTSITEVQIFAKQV
T2 sequence (Q8DQP4 entry or part of it): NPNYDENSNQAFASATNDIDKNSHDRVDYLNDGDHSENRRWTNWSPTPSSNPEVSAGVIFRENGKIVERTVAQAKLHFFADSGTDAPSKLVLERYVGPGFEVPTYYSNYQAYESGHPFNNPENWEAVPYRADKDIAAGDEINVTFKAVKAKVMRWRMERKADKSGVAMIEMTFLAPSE

In the case of `OC[C@H]1OC(O)[C@H](O)[C@@H](O)[C@H]1O` (stereo partly drawn) [D-galactose], the UV difference spectroscopy (CBM71-1 [1]) is reported as “only D-galactose gave a signature UV difference spectrum consistent with sugar binding” and the UV difference spectroscopy (CBM71-2 [2]) is reported as “For both CBMs, the binding to galactose was too weak to quantify”.
Work on `CC(=O)N[C@H]1C(O)O[C@H](CO)[C@@H](O[C@@H]2O[C@H](CO)[C@H](O)[C@H](O)[C@H]2O)[C@@H]1O` (stereo partly drawn) [LacNAc] yielded a Kd (CBM71-2 [3]) of 247 µM and a Kd (CBM71-1 [4]) of 251 µM.
Work on `OC[C@H]1CNC[C@@H](O)[C@H]1O` [galactoisofagomine] yielded a Kd [5] of 0.026 µM and a Ki [6] of 0.025 µM.
`OC[C@H]1NC(O)[C@H](O)[C@@H](O)[C@H]1O` (stereo partly drawn) [galactonojirimycin] gave a Ki [6] of 33.9 µM.
`OC[C@H]1O[C@@H](O[C@H]2[C@H](O)[C@@H](O)C(O)O[C@@H]2CO)[C@H](O)[C@@H](O)[C@H]1O` (stereo partly drawn) [lactose] gave a Kd (CBM71-2 [3]) of 378 µM and a Kd (CBM71-1 [4]) of 368 µM.
